One block for each molecule: values may come before it. The source made the active and inactive calls.
Experiments:
HEK293 [1] = test: cells; format: functional, cell-based; details: Homo sapiens
HEK293 [2] = test: cells; format: functional, cell-based; details: Homo sapiens; remark: listed apart in the source
HEK293 [3] = test: NOD2 signaling inhibitors in MDP-stimulated cells, cell-based, uHTS, luminescence (AID 2001); format: functional; details: Homo sapiens
HEK293 [4] = test: cells; format: functional, cell-based; details: Homo sapiens; remark: listed apart in the source
[5] = C. albicans growth with fluconazole, confirmation, fluorescence, retest (AID 2467); format: functional, cell-based
[6] = target: Nucleotide-binding oligomerization domain-containing protein 2 (Homo sapiens, UniProt Q9HC29); test: NOD2 signaling inhibitors, cell-based, luminescence, uHTS, HEK293 (AID 1566); format: functional
Saccharomyces cerevisiae = test: NALP1 inhibitor project selectivity study, Caspase-1/ASC signal blockade IC50 in S. cerevisiae (AID 488863); format: functional, organism-based
[7] = target: T1, Microphthalmia-associated transcription factor (Homo sapiens, UniProt O75030); test: TRPM1 promoter luciferase signal decrease, dose response, MITF inhibitor project, cell-based, SK-MEL-5, cherry-picked, set 3 (AID 493073); format: functional
T1 sequence (O75030 whole entry): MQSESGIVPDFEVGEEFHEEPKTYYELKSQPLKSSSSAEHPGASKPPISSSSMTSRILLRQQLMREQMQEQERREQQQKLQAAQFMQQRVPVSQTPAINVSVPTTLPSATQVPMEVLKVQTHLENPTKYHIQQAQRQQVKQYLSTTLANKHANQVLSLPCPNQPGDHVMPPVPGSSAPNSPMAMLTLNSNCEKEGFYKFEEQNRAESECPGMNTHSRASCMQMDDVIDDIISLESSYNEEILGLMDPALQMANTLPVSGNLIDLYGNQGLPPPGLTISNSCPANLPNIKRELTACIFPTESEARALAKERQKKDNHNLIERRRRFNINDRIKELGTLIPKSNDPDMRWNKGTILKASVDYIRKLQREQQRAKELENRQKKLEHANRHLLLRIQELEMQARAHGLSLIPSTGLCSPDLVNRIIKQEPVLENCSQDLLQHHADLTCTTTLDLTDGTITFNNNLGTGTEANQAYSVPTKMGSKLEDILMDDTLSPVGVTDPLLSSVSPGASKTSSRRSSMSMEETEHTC

[8] = target: NACHT, LRR and PYD domains-containing protein 1 (Homo sapiens, UniProt Q9C000); test: NALP1 inhibitors in yeast, dose response, luminescent (AID 488860); format: functional
[9] = target: FAD-linked sulfhydryl oxidase ALR (Homo sapiens, UniProt P55789); test: inhibitors of human ALR sulfhydryl oxidase, dose response, biochemical, H2O2 detection, luminescence, cherry-pick (AID 493248)
FAD-linked sulfhydryl oxidase ALR, sequence (P55789 whole entry): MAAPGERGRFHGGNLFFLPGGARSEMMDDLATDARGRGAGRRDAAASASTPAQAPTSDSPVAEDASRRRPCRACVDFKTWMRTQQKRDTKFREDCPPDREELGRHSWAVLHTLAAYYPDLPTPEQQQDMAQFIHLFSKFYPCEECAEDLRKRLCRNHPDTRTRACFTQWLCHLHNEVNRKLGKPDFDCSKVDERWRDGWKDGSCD

[10] = NIH-3T3 fibroblast cytotoxicity, dose response, cytotoxicity control, cell-based, fluorescence, Alamar Blue, secondary assay (AID 2327); format: functional;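 also: NIH-3T3 mouse fibroblasts cultured with fluconazole at 8 µg/mL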
HEK293 [11] = test: NOD1 signaling inhibitors, primary screen, cell-based, luminescence, uHTS (AID 1578); format: functional; details: Homo sapiens
[12] = target: DNA dC->dU-editing enzyme APOBEC-3G (Homo sapiens, UniProt Q9HC16); test: Dose Response confirmation of small molecule APOBEC3G DNA Deaminase Inhibitors via a fluorescence-based single-stranded DNA deaminase assay. [Related pubchem assays (depositor defined):AID493012, AID493028]; format: functional
[13] = target: DNA dC->dU-editing enzyme APOBEC-3A (Homo sapiens, UniProt P31941); test: APOBEC3A DNA deaminase inhibitors, dose response, biochemical (AID 504722); format: functional
DNA dC->dU-editing enzyme APOBEC-3A, sequence (P31941 whole entry): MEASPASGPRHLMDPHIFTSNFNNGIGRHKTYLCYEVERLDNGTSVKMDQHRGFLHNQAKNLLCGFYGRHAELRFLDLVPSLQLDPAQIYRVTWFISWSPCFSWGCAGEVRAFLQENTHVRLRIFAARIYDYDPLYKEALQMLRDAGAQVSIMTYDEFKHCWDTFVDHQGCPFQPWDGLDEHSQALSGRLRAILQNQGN

[14] = target: Cystic fibrosis transmembrane conductance regulator/Golgi-associated PDZ and coiled-coil motif-containing protein (Homo sapiens, UniProt P13569+Q9HD26); test: CAL PDZ peptide-binding inhibitors, dose response, biochemical, fluorescence polarization, Cerulean-tagged CAL PDZ, cherry-picks (AID 504773)
[15] = target: Peroxisome proliferator-activated receptor gamma/Nuclear receptor coactivator 3 (Homo sapiens, UniProt P37231); test: TR-FRET dose response biochemical High Throughput Screening assay for agonists of the steroid receptor coactivator 3 (SRC-3) recruitment by the peroxisome proliferator-activated receptor gamma (PPAR gamma): non-selective agonists. [Related pubchem assays: 1301 (Confirmation screen.), 1048 (Primary screen.)]; format: functional
Peroxisome proliferator-activated receptor gamma/Nuclear receptor coactivator 3, sequence (P37231 whole entry): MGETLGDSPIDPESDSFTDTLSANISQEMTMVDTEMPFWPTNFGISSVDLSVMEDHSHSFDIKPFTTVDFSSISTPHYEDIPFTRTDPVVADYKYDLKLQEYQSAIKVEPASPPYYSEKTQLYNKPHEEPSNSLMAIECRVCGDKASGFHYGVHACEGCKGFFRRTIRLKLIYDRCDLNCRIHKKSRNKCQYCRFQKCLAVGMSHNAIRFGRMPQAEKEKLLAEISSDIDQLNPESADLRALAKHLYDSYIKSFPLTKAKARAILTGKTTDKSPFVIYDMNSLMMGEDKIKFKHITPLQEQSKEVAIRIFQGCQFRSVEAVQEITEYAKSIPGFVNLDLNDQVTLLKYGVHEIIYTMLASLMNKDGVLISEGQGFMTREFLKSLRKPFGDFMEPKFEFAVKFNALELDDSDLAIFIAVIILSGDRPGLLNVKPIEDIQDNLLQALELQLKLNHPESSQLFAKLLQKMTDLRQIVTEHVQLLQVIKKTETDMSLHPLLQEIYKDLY
Peroxisome proliferator-activated receptor gamma/Nuclear receptor coactivator 3, sequence (Q9Y6Q9 whole entry, further chain): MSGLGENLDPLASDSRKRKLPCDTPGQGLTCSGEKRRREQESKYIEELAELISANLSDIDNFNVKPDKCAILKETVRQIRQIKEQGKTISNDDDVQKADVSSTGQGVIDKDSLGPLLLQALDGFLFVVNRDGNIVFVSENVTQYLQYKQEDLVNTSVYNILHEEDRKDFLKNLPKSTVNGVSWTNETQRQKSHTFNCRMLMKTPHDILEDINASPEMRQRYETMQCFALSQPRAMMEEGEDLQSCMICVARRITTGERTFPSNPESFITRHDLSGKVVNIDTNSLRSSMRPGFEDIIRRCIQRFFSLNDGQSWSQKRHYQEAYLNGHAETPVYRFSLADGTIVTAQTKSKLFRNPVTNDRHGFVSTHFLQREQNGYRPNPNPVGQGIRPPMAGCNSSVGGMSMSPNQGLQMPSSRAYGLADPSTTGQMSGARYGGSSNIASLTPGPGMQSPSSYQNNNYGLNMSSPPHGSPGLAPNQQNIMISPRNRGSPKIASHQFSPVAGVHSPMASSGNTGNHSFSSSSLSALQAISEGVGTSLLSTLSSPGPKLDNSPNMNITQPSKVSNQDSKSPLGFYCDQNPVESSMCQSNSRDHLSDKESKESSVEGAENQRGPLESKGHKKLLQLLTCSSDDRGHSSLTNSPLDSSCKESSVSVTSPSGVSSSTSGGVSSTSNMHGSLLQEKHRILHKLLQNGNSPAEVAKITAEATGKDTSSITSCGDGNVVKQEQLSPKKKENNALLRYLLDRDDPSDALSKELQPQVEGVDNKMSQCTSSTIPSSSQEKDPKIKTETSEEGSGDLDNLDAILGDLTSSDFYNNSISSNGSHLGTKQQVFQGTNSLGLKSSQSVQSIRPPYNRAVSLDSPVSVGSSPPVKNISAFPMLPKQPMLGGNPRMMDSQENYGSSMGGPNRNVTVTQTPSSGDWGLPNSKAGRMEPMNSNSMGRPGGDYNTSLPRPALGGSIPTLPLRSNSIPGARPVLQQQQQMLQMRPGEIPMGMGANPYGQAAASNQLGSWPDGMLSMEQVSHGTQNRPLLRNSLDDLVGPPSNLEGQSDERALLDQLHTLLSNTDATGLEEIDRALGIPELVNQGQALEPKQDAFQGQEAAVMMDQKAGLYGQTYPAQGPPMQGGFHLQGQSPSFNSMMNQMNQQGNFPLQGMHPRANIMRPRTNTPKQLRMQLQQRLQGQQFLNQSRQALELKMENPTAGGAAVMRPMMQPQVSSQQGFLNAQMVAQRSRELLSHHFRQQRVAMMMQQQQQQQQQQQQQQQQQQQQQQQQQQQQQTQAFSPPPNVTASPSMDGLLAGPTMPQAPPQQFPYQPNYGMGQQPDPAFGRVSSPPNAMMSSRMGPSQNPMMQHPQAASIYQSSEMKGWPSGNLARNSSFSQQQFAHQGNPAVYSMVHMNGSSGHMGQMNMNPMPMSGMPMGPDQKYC

[16] = target: T2, Mannose-6-phosphate isomerase (Homo sapiens, UniProt P34949); test: PMI enzyme inhibitors, confirmation, biochemical, fluorescence intensity (AID 1535)
T2 sequence (P34949 whole entry): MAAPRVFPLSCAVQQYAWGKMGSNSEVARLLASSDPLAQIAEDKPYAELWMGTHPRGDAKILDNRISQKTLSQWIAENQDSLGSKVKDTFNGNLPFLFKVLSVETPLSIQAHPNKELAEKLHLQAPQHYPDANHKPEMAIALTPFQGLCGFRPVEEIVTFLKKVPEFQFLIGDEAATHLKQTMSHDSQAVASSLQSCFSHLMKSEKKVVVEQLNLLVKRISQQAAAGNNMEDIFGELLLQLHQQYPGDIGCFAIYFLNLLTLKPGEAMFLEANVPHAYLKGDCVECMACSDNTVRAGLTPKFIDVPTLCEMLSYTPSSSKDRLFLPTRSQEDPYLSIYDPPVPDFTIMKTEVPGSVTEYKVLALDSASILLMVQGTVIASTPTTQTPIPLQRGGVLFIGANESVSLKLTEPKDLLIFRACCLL

[17] = target: Peroxisome proliferator-activated receptor gamma/Nuclear receptor coactivator 2 (Homo sapiens, UniProt P37231); test: (§1) TR-FRET dose response biochemical High Throughput Screening assay for agonists of the steroid receptor coactivator 2 (SRC-2) recruitment by the peroxisome proliferator-activated receptor gamma (PPAR gamma): non-selective agonists. [Related pubchem assays: 1297, 1032 ]; format: functional
Peroxisome proliferator-activated receptor gamma/Nuclear receptor coactivator 2, sequence (P37231 whole entry): as the sequence (P37231 whole entry) above
Peroxisome proliferator-activated receptor gamma/Nuclear receptor coactivator 2, sequence (Q15596 whole entry, further chain): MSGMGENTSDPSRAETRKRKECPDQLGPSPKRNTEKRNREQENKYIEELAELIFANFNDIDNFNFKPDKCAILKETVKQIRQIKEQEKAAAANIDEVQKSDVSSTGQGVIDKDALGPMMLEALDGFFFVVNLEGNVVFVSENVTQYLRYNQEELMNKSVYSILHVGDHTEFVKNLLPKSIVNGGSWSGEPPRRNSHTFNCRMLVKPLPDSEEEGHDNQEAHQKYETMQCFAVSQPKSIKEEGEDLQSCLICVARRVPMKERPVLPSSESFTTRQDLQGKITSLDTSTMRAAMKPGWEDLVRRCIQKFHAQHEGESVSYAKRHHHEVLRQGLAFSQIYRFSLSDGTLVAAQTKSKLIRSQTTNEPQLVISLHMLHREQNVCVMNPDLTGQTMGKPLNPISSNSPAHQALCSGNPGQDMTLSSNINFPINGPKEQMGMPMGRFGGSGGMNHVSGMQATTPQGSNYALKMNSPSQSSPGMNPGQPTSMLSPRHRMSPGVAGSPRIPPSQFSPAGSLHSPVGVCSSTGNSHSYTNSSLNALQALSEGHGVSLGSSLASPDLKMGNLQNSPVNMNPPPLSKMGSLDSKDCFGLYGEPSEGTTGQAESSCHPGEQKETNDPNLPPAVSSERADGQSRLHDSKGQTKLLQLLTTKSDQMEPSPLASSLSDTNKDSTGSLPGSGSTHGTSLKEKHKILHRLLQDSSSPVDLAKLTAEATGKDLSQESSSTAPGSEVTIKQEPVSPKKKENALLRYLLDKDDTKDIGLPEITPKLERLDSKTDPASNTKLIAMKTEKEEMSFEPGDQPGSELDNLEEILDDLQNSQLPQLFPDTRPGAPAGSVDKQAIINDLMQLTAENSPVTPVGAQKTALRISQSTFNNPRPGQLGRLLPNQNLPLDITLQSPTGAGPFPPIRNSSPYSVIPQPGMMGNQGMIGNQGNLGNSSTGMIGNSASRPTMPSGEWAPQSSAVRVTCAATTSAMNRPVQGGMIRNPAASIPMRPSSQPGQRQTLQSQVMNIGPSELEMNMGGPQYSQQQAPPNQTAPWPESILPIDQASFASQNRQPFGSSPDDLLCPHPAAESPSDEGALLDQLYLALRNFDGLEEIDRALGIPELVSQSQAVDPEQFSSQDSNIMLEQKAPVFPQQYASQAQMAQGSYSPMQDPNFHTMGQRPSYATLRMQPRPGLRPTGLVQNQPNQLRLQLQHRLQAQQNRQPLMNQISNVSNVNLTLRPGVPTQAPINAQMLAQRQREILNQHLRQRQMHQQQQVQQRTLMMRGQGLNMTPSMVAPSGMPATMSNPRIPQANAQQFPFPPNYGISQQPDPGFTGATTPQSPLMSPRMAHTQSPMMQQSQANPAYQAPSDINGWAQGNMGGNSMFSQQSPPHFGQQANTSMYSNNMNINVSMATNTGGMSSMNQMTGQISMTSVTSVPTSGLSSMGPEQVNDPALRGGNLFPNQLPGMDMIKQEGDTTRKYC

Phosphomannomutase 2 = Phosphomannomutase 2 (Homo sapiens, UniProt O15305); test: Counter screen SAR assay for PMM2 inhibitors via a fluorescence intensity assay. [Related pubchem assays (depositor defined):AID1545, AID1574]
[18] = target: Peroxisome proliferator-activated receptor gamma/Nuclear receptor coactivator 1 (Homo sapiens, UniProt P37231); test: as §1, with “1 (SRC-1)” for “2 (SRC-2)”, “assays (depositor defined):AID1300, AID1808, AID504735, AID631]” for “assays: 1297, 1032 ]”; format: protein assay
Leucine aminopeptidase = target: T3, Leucine aminopeptidase (Plasmodium falciparum 3D7, UniProt Q8IL11); test: P. falciparum M17LAP inhibitors, primary screen, biochemical, fluorogenic H-Leu-NHMec substrate, 1536-well (AID 1619); format: functional
T3 sequence (Q8IL11 whole entry): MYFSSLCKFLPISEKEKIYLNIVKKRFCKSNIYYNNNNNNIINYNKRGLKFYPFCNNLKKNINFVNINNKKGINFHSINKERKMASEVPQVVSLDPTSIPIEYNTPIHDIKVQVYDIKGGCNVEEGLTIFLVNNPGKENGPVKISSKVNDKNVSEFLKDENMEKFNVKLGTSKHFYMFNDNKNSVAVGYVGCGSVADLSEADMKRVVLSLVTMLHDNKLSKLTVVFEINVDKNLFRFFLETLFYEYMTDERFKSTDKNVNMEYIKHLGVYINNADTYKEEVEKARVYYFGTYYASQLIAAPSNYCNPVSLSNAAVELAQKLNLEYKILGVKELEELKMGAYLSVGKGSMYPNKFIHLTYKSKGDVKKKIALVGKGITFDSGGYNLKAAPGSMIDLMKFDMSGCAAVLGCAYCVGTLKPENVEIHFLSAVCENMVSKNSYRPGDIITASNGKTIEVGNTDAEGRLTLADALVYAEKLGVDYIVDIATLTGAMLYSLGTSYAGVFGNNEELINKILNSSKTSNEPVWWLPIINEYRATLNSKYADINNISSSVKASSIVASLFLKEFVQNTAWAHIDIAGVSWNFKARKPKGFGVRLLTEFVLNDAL

Aspartyl aminopeptidase = Aspartyl aminopeptidase (Plasmodium falciparum 3D7, UniProt Q8I2J3); test: Counterscreen for inhibitors of M1 and M17 aminopeptidases: QFRET-based biochemical high throughput dose response assay for inhibitors of the Plasmodium falciparum M18 Aspartyl Aminopeptidase (PFM18AAP). [Related PubChem assays: 1619 (Screening assay (M17LAP inhibitors).), 1445 (Screening assay (M1AAP inhibitors).)]
Aspartyl aminopeptidase, sequence (Q8I2J3 whole entry): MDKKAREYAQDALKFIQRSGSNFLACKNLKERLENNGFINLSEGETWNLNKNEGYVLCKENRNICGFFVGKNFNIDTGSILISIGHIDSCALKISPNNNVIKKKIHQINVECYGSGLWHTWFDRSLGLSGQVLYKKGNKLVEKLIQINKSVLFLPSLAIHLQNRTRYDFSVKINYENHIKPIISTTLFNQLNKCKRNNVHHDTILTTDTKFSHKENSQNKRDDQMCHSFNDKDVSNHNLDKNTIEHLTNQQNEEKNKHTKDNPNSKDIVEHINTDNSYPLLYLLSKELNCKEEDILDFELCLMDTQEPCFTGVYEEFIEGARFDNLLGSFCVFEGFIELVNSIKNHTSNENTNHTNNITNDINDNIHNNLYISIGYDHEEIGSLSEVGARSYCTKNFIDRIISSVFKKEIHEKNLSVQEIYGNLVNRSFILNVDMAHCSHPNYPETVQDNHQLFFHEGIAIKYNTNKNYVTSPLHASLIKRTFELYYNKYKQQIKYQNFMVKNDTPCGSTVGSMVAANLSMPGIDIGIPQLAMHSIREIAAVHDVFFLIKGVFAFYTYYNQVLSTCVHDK

Procathepsin L = Procathepsin L (Homo sapiens, UniProt P07711); test: cathepsin L inhibitors, dose response, counter-screen for M1/M17 aminopeptidase inhibitor project, biochemical, QFRET, 1536-well (AID 2214)

Compound: Nc1ccc(Oc2cccc(Oc3ccc(N)cc3)c2)cc1
IC50 (HEK293 [1]): 1.61 µM (active)
IC50 (HEK293 [2]): > 20 µM (inactive)
IC50 (HEK293 [3]): 3.05 µM (active)
IC50 (HEK293 [4]): 19.9 µM (active)
EC50 [5]: > 38 µM (not active)
EC50 [6]: 1.85 µM (active)
IC50 (Saccharomyces cerevisiae): 10.2 µM (active)
AC50 [7]: 1.1 µM (active)
IC50 [8]: 15.3 µM (active)
AC50 [9]: 0.677 µM (active)
EC50 [10]: > 150 µM (inactive)
EC50 (HEK293 [11]): 5.94 µM (active)

Compound: S=c1[nH]nc(-c2ccco2)n1C1CCCCC1
IC50 [12]: 4.08 µM (active)
IC50 [13]: > 100 µM (inactive)
AC50 [9]: 5.64 µM (active)

AC50 [14]: 11.2 µM (active)
Compound: Nc1ncnc2c1C(c1ccccc1)c1c(ccc3ccccc13)O2 (stereo not given)

EC50 [15]: > 79.4 µM (not active)
IC50 [16]: 1.94 µM (active)
EC50 [17]: > 79.4 µM (not active)
IC50 (Phosphomannomutase 2): > 100 µM (inactive)
EC50 [18]: > 79.4 µM (inactive)
IC50 (Leucine aminopeptidase): 3.56 µM (active)
AC50 [9]: 0.097 µM (active)
IC50 (Aspartyl aminopeptidase): 15.6 µM (not active)
IC50 (Procathepsin L): > 59.6 µM (not active)
Compound: Sc1n[nH]c(-c2cccc(Cl)c2)n1

— ChEMBL document CHEMBL1201862, “PubChem BioAssay data set” (2004)
